Patent publication US12521356B2, “Compositions and methods for treating pain, inflammation, infection, malaria, and sepsis” (Duke University, priority 2018, dated 2026)

Legend:
GPR32 = target: T1, GPR32 (Homo sapiens, UniProt O75388); experiment: Dot blot binding assay, positive control GPR32
T1 construct: host or cells: HEK293 flip-in cells
Protocol: Lipids overlay assay. Lipids membrane coating and protein overlay assay was conducted as previously described (Ji R R, et al. Science 2016, 354, 572-577). Ethanol and chloroform soluble fatty acids were directly loaded on hydrophobic PVDF membrane (Bio-Rad). The fatty acids (NPD1, RvD1, RvE1, and DHA) coated membranes were dried and blocked with 1% BSA. The cell lysate and purified GPR37-V5 protein were incubated with the coating membrane for 2 h, and the binding was detected by anti-V5 tagged antibody (mouse, 1:1000, Thermo scientific, Catalog: 46-0705).
HEK cell culture and transfection. HEK293 flip-in cell line was purchased from Duke Cell Culture Facility. Cells were cultured in high glucose (4.5 g/L) Dulbecco's Modified Eagle's Medium containing 10% (v/v) fetal bovine serum (Gibco). Transfection (2 μg cDNA) was performed with Lonza electroporation (Lonza) at 70% confluency and the transfected cells were cultured in the same growth medium for 48 h before use. The hGPR37-V5 pLenti304 plasmids were obtained from DNASU (Tempe, AZ), and hGPR32, hChemR23 and hALX pcDNA3 plasmids were provided by Dr. Serhan from Harvard Medical School, Boston.
To determine whether NPD1 and TX14 bind to GPR37, we conducted dot blot assay by coating the blots with different concentrations of NPD1 and TX14 and included RvE1 as a control. […]

GPR37 = experiment: Ca2+ imaging (Fluo-4AM) in peritoneal macrophages (pMΦ) from WT and Gpr37−/− mice; assay type: cell-based, mouse; settings: 30 nM; Gpr37-deficient pMΦ
Protocol: (§1) Peritoneal macrophage culture. Peritoneal macrophages were collected by peritoneal lavage with 10 ml warm PBS containing of 1 mM EDTA. Cells were incubated in DMEM supplemented with 10% FBS at 37° C. for 2 h in petri dish and washed with PBS to eliminate non-adherent cells. The adherent cells were used as peritoneal macrophages. Peritoneal macrophages were used after 3 days of culture.
Calcium imaging. HEK 293 cells, with or without transfection of Gpr37, GPR32, ChemR23 or ALX1 cDNA, were loaded with 5 μM Fura-2AM (Invitrogen) for 1 hour and then were resuspended in normal external buffer (140 NaCl, 5 KCl, 2 CaCl2, 2 MgCl2, 10 HEPES, in mM, titrated to pH 7.4 with NaOH) or external Ca^2+-free buffer (140 NaCl, 2 MgCl2, 5 EGTA, 10 HEPES, in mM, titrated to pH 7.4 with NaOH). Peritoneal macrophages, collected from WT and Gpr37 KO mice, were loaded with 5 μM […] (Invitrogen) for 1 hour and then were resuspended in normal external buffer. Images of the HEK 293 cells and macrophages with the excitation wavelength of 340 nm and 380 nm were captured with a cooled Digital CMOS camera (ORCA-Flash 4.0, Hamamatsu Photonics K.K, Japan). The ratio of fluorescence intensity of the two wavelengths in each experiment was analyzed using MetaFluor (Molecular Devices). The Shutter speed and wavelength was controlled by Lambda DG-4 system (Sutter instrument Co., Novato, CA). Values from each of the experiments were normalized to the baseline ratio of 340/380 nm.
Next, we conducted GPR37-mediated Ca^2+ imaging in native pMΦ from WT and Gpr37^−/− mice using Fluo-4AM as a Ca^2+ indicator, since this dye works better than Fura-2AM for pMΦ. […] As compared to iCa^2+ increase in GPR37-expressing HEK293 cells, NPD1 trigger a slow-onset but more persistent Ca^2+ response in pMΦ (FIG. 2B and FIG. 2G). A relatively rapid calcium response in HEK293 cells may result from over-expression of GPR37. A sustained iCa^2+ increase in pMΦ may result from the expression of transient receptor potential (TRP) ion channels in these immune cells. It is noteworthy that macrophages express TRPV2 or TRPM2, which are involved in phagocytosis during bacterial infection. […] NPD1-triggered iCa^2+ increase in pMΦ is also Gi-dependent, since PTX blocked this increase (FIG. 2H). For comparison, ATP-evoked iCa^2+ increase was not altered in GPR37-deficient pMΦ (FIG. 2H).

pMΦ = experiment: ELISA of cytokines in zymosan-stimulated pMΦ cultures; assay type: cell-based, mouse
Protocol: FIG. 14A-FIG. 14C. NPD1 regulates cytokine expression in cultured macrophages via GPR37. ELISA showing the expression of pro-inflammatory cytokine IL-1β (FIG. 14A) and anti-inflammatory cytokines IL-10 (FIG. 14B) and TGF-β (FIG. 14C) in pMΦ from WT and Gpr37^−/− mice. pMΦ were stimulated with 100 μg/mL zymosan for 24 h. Note that NPD1 differentially regulates the expression of pro- and anti-inflammatory cytokines. *P<0.05; n=3 cultures/group. All the data are mean±SEM.
ELISA. Mouse ELISA kits for IL-1β, TGF-β and IL10 were purchased from R&D system (Minneapolis, MN, Catalog: MLB00C for IL-1β, Catalog: MB100B for TGF-β, and Catalog: M1000B for IL-10). ELISA was performed using culture medium and hindpaw skin tissues. Cultured cells and tissues were homogenized in a lysis buffer containing protease and phosphatase inhibitors. For each Elisa assay, 50 μg proteins or 50 μL of culture medium were used. ELISA was conducted according to manufacturer's instructions. The standard curve was included in each experiment.
as §1

[1] = pMΦ cultures, zymosan 100 μg/mL for 24 h

T1 sequence (O75388 whole entry): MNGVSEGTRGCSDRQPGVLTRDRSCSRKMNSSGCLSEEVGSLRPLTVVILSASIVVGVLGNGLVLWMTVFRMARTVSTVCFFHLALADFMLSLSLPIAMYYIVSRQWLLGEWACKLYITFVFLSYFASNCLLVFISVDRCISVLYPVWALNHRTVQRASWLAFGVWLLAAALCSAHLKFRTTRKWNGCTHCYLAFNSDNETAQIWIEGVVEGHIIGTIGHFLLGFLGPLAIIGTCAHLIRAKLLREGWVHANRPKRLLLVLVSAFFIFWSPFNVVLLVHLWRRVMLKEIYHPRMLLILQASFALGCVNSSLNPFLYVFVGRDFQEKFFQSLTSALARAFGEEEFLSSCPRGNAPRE

binding to GPR32 (GPR32) | Structure (SMILES) | iCa2+ increase (GPR37) | IL-1β levels (pMΦ; [1]) | IL-10 levels (pMΦ; [1]) | TGF-β levels (pMΦ; [1]) | dependence of cytokine effects on GPR37 (pMΦ; pMΦ from WT and Gpr37−/− mice)
strong binding | CC/C=C\C[C@H](O)/C=C/C=C\C=C\C=C\[C@@H](O)[C@@H](O)C/C=C\CCC(=O)O [RvD1] |  |  |  |  | 
 | CC/C=C\C[C@H](O)\C=C/C=C/C=C/[C@H](O)C/C=C\C/C=C\CCC(=O)O [NPD1, neuroprotectin D1] | abolished | suppressed | increased | increased | required GPR37
